Source: patent US20050074404A1, “Methods for avoiding renal injury” (Pfizer Inc., priority 2002, published 2005)

How the values were obtained:
[1] = system: rat kidney; experiment: Histopathology of rat kidney (H & E); format: in vivo
From the text: (§1) The physiological events that characterize the onset of phospholipidosis are well known to those with skill in the art (see, for example, Girton (2002)). […] Following endocytosis, the aminoglycoside accumulates in lysosomes. The lysosomes eventually swell with excess lipid debris. When visualized using electron-microscopy, the accumulated lipid appear as phospholipid inclusions, or myelin figures, within the lysosomes (Kosek et al. (1974)) (see FIG. 1 and FIG. 2 below). The phospholipid inclusions may also be visualized by staining with Sudan black as described, for example, in Presnell and Schreibman (1997) (see FIG. 3 below). The damage to renal tissue from phospholipidosis may be visualized by histological examination using hematoxylin and eosin staining (H & E) of the renal tissue damaged through phospholipidosis. The damage that is evident includes tubular degeneration, vacuolation and eventually, in advanced stages of damage, necrosis of the renal proximal tubule (see FIG. 5 and FIG. 6 below).
(§2) Male Sprague Dawley rats (105-125 grams each) were purchased from Charles River (Kingston, N.Y.). […] Rats were dosed intramuscular, using a 25 gauge tuberculin syringe. The animals were housed individually prior to urine collection. For the urine collection, rats were transferred to individual metabolism cages. At all times throughout the study, the animals had free access to food and water. […] Rats were dosed once per day for the duration of 1, 4 or 9 days. Urine was collected after one dose, four doses and nine doses. Each collection period was for 24 hours. Urine was collected, chilled to approximately 4° C. and protected from light. Total urine volume was measured at the end of each collection period prior to retinol analysis. The urine was stored at −80° C. and in darkness to protect the components of the urine from oxidation and degration until analysis.

[2] = Urinary albumin concentrations in rats; format: in vivo, rat; conditions: 100 mg/kg once per day
Experimental: as §2

[3] = Urinary retinol concentrations in rats (HPLC); format: in vivo, rat; conditions: 100 mg/kg intramuscular once per day, 24 h urine
Experimental: A. Dosing of Mammals, Collection and Storage of Urine
as §2
B. Measurement of Retinol in Urine Samples
The acetonitrile, methanol, isopropanol and tetrahydrofuran (THF) were purchased from J. T. Baker (Phillipsburg, N.J.). The acetonitrile and methanol were HPLC grade and the isopropanol and THF were ACS reagent grade. The water in the mobile phase came from a Nanopure® water filtration system (Barnstead, Dubuque, Ind.). Retinol and retinol acetate standards were purchased from ICN Biomedicals (Costa Mesa, Calif.). The retinol palmitate was purchased from Sigma Chemicals (St. Louis, Mo.).
The HPLC instrumentation consisted of a Hewlett-Packard Model 1090 Series II system (Hewlett Packard Company, Palo Alto, Calif.) equipped with a tertiary gradient pump, diode array detector, and a cooled auto-sampler. Hewlett-Packard Chemstation™ software (Rev. 5.02) was used for data collection and analysis. Absorbance data for all retinols was collected at a wavelength of 340 nm. All separations were carried out on a 15 cm×2.0 mm, 5μ particle size, Prodigy ODS (2) HPLC column (Phenomenex, Torrance, Calif.). The column was equipped with an inlet filter, 0.5μ×1.5 mm (Phenomenex, Torrance, Calif.). […]

[4] = system: rat proximal tubule; experiment: Electron microscopy of rat proximal tubule; format: in vivo; conditions: four days of treatment with 100 mg/kg
From the text: as §1
Male Sprague Dawley rats (105-125 grams each) were purchased from Charles River (Kingston, N.Y.). […] Rats were dosed intramuscular, using a 25 gauge tuberculin syringe. The animals were housed individually prior to urine collection. […] Total urine volume was measured at the end of each collection period prior to retinol analysis. […]

[5] = system: rat kidney; experiment: Sudan black staining of rat kidney for phospholipids; format: in vivo
From the text: as §1, §2

Gentamicin sulfate
Histopathologic effects, onset ([1]; 100 mg/kg once per day): do not begin to appear until day four | Chronic Progressive Nephropathy, slight, number of animals ([1]; 100 mg/kg, Day 1, of 8 rats): 1 | Hyaline droplets, slight, number of animals ([1]; 100 mg/kg, Day 1, of 8 rats): 3 | No significant findings, number of animals ([1]; 100 mg/kg, Day 1, of 8 rats): 4 | Chronic Progressive Nephropathy, slight, number of animals ([1]; 100 mg/kg, Day 4, of 8 rats): 2 | Hyaline droplets, mild, number of animals ([1]; 100 mg/kg, Day 4, of 8 rats): 1 | Hyaline droplets, slight, number of animals ([1]; 100 mg/kg, Day 4, of 8 rats): 3 | Tubular degeneration (1), mild, number of animals ([1]; 100 mg/kg, Day 4, of 8 rats): 2 | Tubular degeneration (1), slight, number of animals ([1]; 100 mg/kg, Day 4, of 8 rats): 6 | Tubular vacuolation, mild, number of animals ([1]; 100 mg/kg, Day 4, of 8 rats): 3 | Tubular vacuolation, slight, number of animals ([1]; 100 mg/kg, Day 4, of 8 rats): 3 | Hyaline droplets, mild, number of animals ([1]; 100 mg/kg, Day 9, of 8 rats): 4 | Hyaline droplets, slight, number of animals ([1]; 100 mg/kg, Day 9, of 8 rats): 1 | Tubular degeneration/necrosis/regeneration (3), marked, number of animals ([1]; 100 mg/kg, Day 9, of 8 rats): 6 | Tubular degeneration/necrosis/regeneration (3), severe, number of animals ([1]; 100 mg/kg, Day 9, of 8 rats): 2 | Tubular vacuolation, mild, number of animals ([1]; 100 mg/kg, Day 9, of 8 rats): 2 | Tubular vacuolation, moderate, number of animals ([1]; 100 mg/kg, Day 9, of 8 rats): 4 | Tubular vacuolation, slight, number of animals ([1]; 100 mg/kg, Day 9, of 8 rats): 1 | Rat kidney tissue histology (FIG. 5) ([1]; four days of treatment with 100 mg/kg): early lesions formation | Rat kidney tissue histology (FIG. 6) ([1]; nine days of treatment with 100 mg/kg): extensive kidney tissue damage | Urinary albumin concentration ([2]; Day 1, mean of eight rats): 163 µg/mL | Urinary albumin concentration ([2]; Day 4, mean of eight rats): 354 µg/mL | Urinary albumin concentration ([2]; Day 9, mean of eight rats): 1184 µg/mL | Urinary retinol concentration ([3]; Day 1, mean of eight rats): 123.57 nM | Urinary retinol concentration ([3]; Day 4, mean of eight rats): 131.08 nM | Urinary retinol concentration ([3]; Day 9, mean of eight rats): 2457.13 nM | Electron-micrograph finding in rat proximal tubule (FIG. 1) [4]: phospholipid inclusions or myelin figures | Significant Sudan black staining, onset ([5]; 100 mg/kg once per day): not observed until day four | Sudan black staining negative, number of animals ([5]; 100 mg/kg, Day 1, of 8 rats): 3 | Sudan black staining slight, number of animals ([5]; 100 mg/kg, Day 1, of 8 rats): 5 | Sudan black staining mild, number of animals ([5]; 100 mg/kg, Day 4, of 8 rats): 1 | Sudan black staining mild-moderate, number of animals ([5]; 100 mg/kg, Day 4, of 8 rats): 2 | Sudan black staining moderate, number of animals ([5]; 100 mg/kg, Day 4, of 8 rats): 2 | Sudan black staining moderate-marked, number of animals ([5]; 100 mg/kg, Day 4, of 8 rats): 3 | Sudan black staining marked, number of animals ([5]; 100 mg/kg, Day 9, of 8 rats): 1 | Sudan black staining mild, number of animals ([5]; 100 mg/kg, Day 9, of 8 rats): 1 | Sudan black staining mild-moderate, number of animals ([5]; 100 mg/kg, Day 9, of 8 rats): 1 | Sudan black staining moderate, number of animals ([5]; 100 mg/kg, Day 9, of 8 rats): 2 | Sudan black staining moderate-marked, number of animals ([5]; 100 mg/kg, Day 9, of 8 rats): 3 | Sudan black staining ([5]; after a single dose (100 mg/kg)): slight staining
